Data as given in patent US10758501B2, “Use of histone acetyltransferase inhibitor amidoximes as anti-proliferative agents” (Texas Woman's University, priority 2017, dated 2020).
Values joined by “and” are separate entries in the source; they are usually repeats but may differ in a detail not shown here. Equal entries are not always repeated. Where two headings read alike, the source gives them in different places.

Assays:
[1] = system: MDA-MB-231 (breast adenocarcinoma); assay: MTS growth inhibition assay, MDA-MB-231; type: cell-based; settings: Homo sapiens, 48 hrs, 0.2-500 μM, mean ±SD n=3, read-out: Growth Inhibition GI50 (±standard deviation), Breast (MDA-MB-231)
Description: (§1) In Table 1, the various compounds listed were tested for induction of death in various malignant human cell lines and were compared to the commercial HAT inhibitor garcinol (0.2-500 μM). Specifically, Table 1 describes the summary of the growth inhibitory effect (in μM) of nine novel bisamidoximes on six malignant cell lines, as measured by MTS assay. MTS assay is a colorimetric based cytotoxicity assay that determines the number of viable cells. The numbers in the table represent Growth Inhibition GI50 (±standard deviation), which is the concentration of the drug where 50% of the cells are killed. Garcinol, a known HAT inhibitor, was used as a positive control. The cell lines used were: HCT-116 (colorectal carcinoma), DU-145 (prostate carcinoma), SK-OV-3 (ovarian adenocarcinoma), HLF-a (lung epidermoid carcinoma), MCF-7 & MDA-MB-231 (breast adenocarcinoma) and NHDF (normal human dermal fibroblasts). The cells were treated with compounds JJMB 1-9 for 48 hrs (MCF-7 for 72 hrs) at various concentrations ranging from 0.2 μM to 500 μM. One-way ANOVA was performed to assess the differences between the groups. Differences in means between control and treatment groups were analyzed by post-hoc Dunnett's test, p<0.05. Data is reported as the mean ±SD, n =3. […] The compounds tested (JJMB5, JJMB6, JJMB7, and JJMB9) could efficiently kill several malignant cell-lines in concentration range of micromolars. (See Table 1). […] From these tests it is clear that the compounds affected several cells lines of the three major types of cancers: breast, lung, and colon.

[2] = system: TSA-induced hyperacetylation; assay: Reversion of HDAC-inhibitor (TSA)-induced hyperacetylation; type: cell-based, human; settings: HCT-116, listed as JJM6
Description: To further understand the mechanism of action of the four active compounds (JJMB5, JJMB6, JJMB7, and JJMB9), we performed several experiments that are summarized in Table 2. All the assays were performed on HCT-116 (a colorectal carcinoma), since all of the four specific potent drugs could induce death of these cells. […] Another HAT, GCN5, was not inhibited by any of the compounds. JJMB5, JJM6 and JJMB9 could reverse the activity of an HDAC inhibitor (TSA); thus the hyperacetylation induced by TSA could be reversed by these compounds.
This is another indication that the three compounds, JJMB5, JJMB6, and JJMB9 are HAT inhibitors.

[3] = system: HCT-116 (colorectal carcinoma); assay: MTS growth inhibition assay, HCT-116; type: cell-based, human
Description: as §1, with “colon. […]” for “colon.”
(§2) Combination studies of bisamidoximes and cisplatin were performed on human breast cancer cell line MCF-7, human colon cancer cell line HCT-116, and murine mammary malignant cell lines measured by MTS assay. The cells were treated with novel bisamidoximes JJMB 5, 7, and 9, for 48 hours (72 hours for MCF-7), individually or in combination with cisplatin. Growth Inhibition (GI50) was measured. *—Indicates a significant difference when the drugs were used in combination with cisplatin compared to when the drugs were used individually as determined by one-way ANOVA, p≤0.05.

[4] = system: SK-OV-3 (ovarian adenocarcinoma); assay: MTS growth inhibition assay, SK-OV-3; type: cell-based; settings: Homo sapiens, 48 hrs, 0.2-500 μM, mean ±SD n=3, read-out: Growth Inhibition GI50 (±standard deviation), Ovarian (SKOV-3)
Description: as §1

[5] = system: DU-145 (prostate carcinoma); assay: MTS growth inhibition assay, DU-145; type: cell-based; settings: Homo sapiens, 48 hrs, 0.2-500 μM, mean ±SD n=3, read-out: Growth Inhibition GI50 (±standard deviation), Prostate (DU-145)
Description: as §1

[6] = system: MCF-7 (breast adenocarcinoma); assay: MTS growth inhibition assay, MCF-7; type: cell-based, human
Description: as §1
as §2, with “studies” for “studies of bisamidoximes and cisplatin were”, “MCF-7 and” for “MCF-7,”, “HCT 116 were” for “HCT-116, and murine mammary malignant cell lines”, “combination.” for “combination with cisplatin.”, “combination” for “combination with cisplatin”
as §2

[7] = MTS growth inhibition assay, NHDF; type: cell-based; settings: NHDF (normal human dermal fibroblasts), 0.2-500 μM, read-out: Growth Inhibition GI50 (±standard deviation), Normal (NHDF)
Description: as §1

[8] = system: HLF-a (lung epidermoid carcinoma); assay: MTS growth inhibition assay, HLF-a; type: cell-based; settings: Homo sapiens, 48 hrs, 0.2-500 μM, mean ±SD n=3, read-out: Growth Inhibition GI50 (±standard deviation), Lung (HLF-A)
Description: as §1

[9] = system: 4T1 breast carcinoma cells implanted in mammary fat pad; assay: 4T1 mammary carcinoma tumor volume in BALB/c mice; type: in vivo, mouse; settings: 4T1 in mammary fat pad, two 5-day cycles
Description: The bisamidoxime JJMB7 was studied to see if the compound can lower the rate of tumor growth and the number and size of metastases in mice. […] FIG. 2 depicts a graph of mammary tumor volumes in JJMB7 treated and untreated control BALB/c mice. In the experiment, six-week-old BALB/c mice were implanted with 10,000 4T1 breast carcinoma cells in the mammary fat pad (MFP). […] JJMB7 was administered for five consecutive days, followed by a two day break, and another five consecutive days of injections. Mice were weighed every day and observed for signs of pain and discomfort. Tumors were visible 7 days after implantation, and tumor dimensions were measured, and volumes were calculated until day-24, when mice were euthanized. A One-Way Repeated Measures ANOVA was performed to determine a statistical significance (p≤0.05).
The murine mammary carcinoma 4T1 cells were implanted in the mammary fat pad of BALB/c female mice (10,000 cells per mice) and a day later we started a protocol of two 5-day cycles (with 2 days break) of chemotherapy delivered IP. The amidoximes were delivered at their MTD level—JJMB5 with 0.26 mg/kg, and JJMB9 with 0.78 mg/kg. One-Way Repeated-Measure ANNOVA was performed to show the significance (p≤0.05, n=10).

[10] = system: murine mammary carcinoma cells 4T1; assay: Growth inhibition of murine mammary cancer cell line 4T1; type: cell-based; settings: Mus musculus; 4T1 cells, single drugs; read-out: growth inhibition 50% (GI50) on 4T1 cells
EpH4 cells = assay: Sensitivity of EpH4 cells to bisamidoximes; type: cell-based; settings: in vitro cell culture
Description: The efficacy of killing malignant cells in mice and slowing down the tumors or eradicating them can be indicative to these compounds' efficacy in humans. To check if the bisamidoximes are potent in mice, breast cancer cells were identified that could be implanted in female mice mammary fat pads. The identified cells were tested to see if they are sensitive to bisamidoximes in vitro (in tube/cell culture).
(§3) At the next stage, we needed to determine whether the mice would tolerate the drugs, or in other words, what would be the maximum tolerated dose (MTD) of each of the bisamidoximes. The three bisamidoximes JJMB5, JJMB7, and JJMB9, as well as a control group of only the vehicle (the solvent used to dissolve the drugs) were injected intraperitoneally (IP) to mice. The protocol included injection of the desired concentration of bisamidoxime over 5 consecutive days, two days of break, and another cycle of 5 successive days of injections.

[11] = Maximum tolerated dose in mice, IP; settings: mouse, in vivo, BALB/c strain, 5 consecutive days, two days break, another 5 days
Description: as §3

[12] = Mouse Liver Microsomes stability; type: in vitro ADME; settings: Mouse Liver Microsomes (FIG. 5); read-out: t1/2 in Mouse Liver Microsomes
[13] = Homo sapiens, HCT-116, 48 hrs, 0.2-500 μM, mean ±SD n=3, * = highly purified, more potent batches, read-out: Growth Inhibition GI50 (±standard deviation), Colon (HCT-116)
[14] = Homo sapiens, MCF7, 72 hours, 0.2-500 μM, mean ±SD n=3, * = highly purified, more potent batches, read-out: Growth Inhibition GI50 (±standard deviation), Breast (MCF-7), 72 hours
[15] = 48 hours, individually or in combination with cisplatin, read-out: Growth Inhibition (GI50), HCT-116, cisplatin combination study
[16] = Homo sapiens, MCF7, 72 hours, individually or in combination with cisplatin, read-out: Growth Inhibition (GI50), MCF-7, cisplatin combination study
[17] = Homo sapiens, MCF7, 72 hours, individually or in combination, read-out: Growth Inhibition (GI50), MCF-7, bisamidoxime combination study

Row | SMILES | GI50 [1] [µM] | Reversion of HDAC-inhibitor-induced hyperacetylation [2] | GI50 [3, 13] [µM] | GI50 [4] [µM] | GI50 [5] [µM] | GI50 [6, 14] [µM] | GI50 at 48 h [7] [µM] | GI50 [8] [µM] | GI50 [3, 15] | mammary carcinoma tumor volume (FIG. 2) ([9]; BALB/c mice, 1.56 mg/kg IP, until day-24) | GI50 [10] [µM] | sensitivity of EpH4 cells to bisamidoximes (EpH4 cells) | MTD [11] [mg/kg] | breast cancer tumor volume (FIG. 3) ([9]; BALB/c female mice, 0.78 mg/kg IP, p≤0.05, n=10) | GI50 [6, 16] [µM] | GI50 [6, 17] [µM] | half-life [12] [min] | GI50 ([6]; 72 hours, individually or in combination with cisplatin, read-out: Growth Inhibition (GI50), MCF-7, cisplatin combination study)
1 | Cc1ccc(/C(=N/O)NCCCCN/C(=N\O)c2ccc(C)cc2)cc1 [JJMB6] | > 500 | could reverse | 17 ± 4 | > 500 | > 500 | > 500 | > 500 | > 500 |  |  |  |  |  |  |  |  |  | 
2 | Cc1ccc(/C(=N/O)NCCN/C(=N\O)c2ccc(C)cc2)cc1 [JJMB7] | 85 ± 3 |  | 6.2 | > 500 | > 500 | > 500 | > 500 | 275 ± 3 | 16.2 ± 2 µM | significantly reduce | 14.7 ± 6.3 | highly sensitive | 1.56 |  |  |  |  | 
3 | C=C(C)[C@@H](CC=C(C)C)C[C@@]12C[C@@H](CC=C(C)C)C(C)(C)[C@@](CC=C(C)C)(C(=O)C(C(=O)c3ccc(O)c(O)c3)=C1O)C2=O [Garcinol, garcinol, reference compound] | 44 ± 4 |  | 39 ± 8 | 43 ± 5 | 55 ± 7 | 55 ± 7 | > 500 | 27 ± 4 |  |  |  |  |  |  |  |  |  | 
4 | Cc1ccc(/C(=N/O)NCCCN(C)CCCN/C(=N\O)c2ccc(C)cc2)cc1 [JJMB9] | > 500 |  | 16 | > 500 | > 500 | 8.5 | > 500 | 40 ± 7 |  |  | 33.3 ± 2.4 | highly sensitive | 0.78 | significantly reduced | 8.5 ± 2.5 | 5.3 ± 2.7 | 13 | 
5 | Cc1ccc(/C(=N/O)NCCCN/C(=N\O)c2ccc(C)cc2)cc1 [JJMB5] | 125 ± 4 |  | 8.5 | > 500 | > 500 | 33.2 | > 500 | 335 ± 4 | 19.3 ± 2.4 µM |  | 6.3 ± 2.3 | highly sensitive | 0.26 |  | 33.2 ± 6 | 28.2 ± 7.1 |  | 
6 | N.N.[Cl][Pt][Cl] [Cisplatin, cisplatin, reference compound] |  |  |  |  |  |  |  |  | 68.6 µM and 73 µM and 66.3 µM |  |  |  |  |  |  |  |  | 40.8 µM and 48.5 µM
